# Test results reported in article PMC6470795 (Molecules, 2019).
# Read-outs that look alike come from different tables or passages of the source.
# Tests used:
# [1] = test system: hepatic carcinoma 97H cells; experiment: MTT antiproliferative assay, 97H cells; format: cell-based, human; settings: Homo sapiens, 97H cells, MTT, 48 h
# From the text: (§3) The cell lines, 97H (human liver cancer cell), Pc9 (human non-small cell lung cancer), HELA (human epithelial cervical cancer cell line), SJSA1 (human osteosarcoma cells), LO2 (human normal liver cells), and HLF (human embryonic lung fibroblast), used in this study were purchased from the Guangzhou ginny ou Biotechnology Co. Ltd. (Guangzhou, China). Cell lines were cultivated in Dulbecco’s Modified Eagle Medium (DMEM) containing 10% (v/v) heat-inactivated fetal bovine serum (FBS), 100 units/mL penicillin, and 100 μg/mL streptomycin.
# (§4) For the cytotoxicity assay, the cells grown in the logarithmic phase were seeded into 96-well plates (5 × 10^3 cells/well) for 24 h, and then exposed to different concentrations of the test compounds for 48 h. After the attached cells had been incubated with 5 mg/mL MTT (Sigma, St. Louis, MO, USA) for another 4 h, the suspension was discarded and subsequently the dark blue crystals (formazan) were solubilized in dimethyl sulfoxide (DMSO). Then, the absorbance was measured at 570 nm using a multifunction microplate reader (Molecular Devices, Flex Station 3) (Thermo Fisher Scientific, San Jose, CA, USA), and each experiment was performed at least in triplicate.
# c-Met phosphorylation = experiment: Western blot, phosphorylation of c-Met in 97H cells; format: cell-based, human
# Method: (§1) 97H cells seeded in 60-mm dishes at a density of 5 × 10^5 cells/well were incubated with or without compound 31e at the indicated concentrations for 4 h. After incubation, the cells were washed twice with ice-cold PBS, and then lysed in RIPA lysis buffer (Radio Immunoprecipitation Assay) containing 150 mM NaCl, 50 mM Tris (pH 7.4), 1% (w/v) sodium deoxycholate, 1% (v/v) Triton X-100, 0.1% (w/v) SDS, and 1 mM EDTA (ethylenediaminetetraacetic acid) (Beyotime, Shanghai, China). The lysates were incubated at 0 °C for 30 min, and vortexed every 10 min intermittently, then the total proteins were harvested by centrifuging at 12,500 g for 15 min. The protein concentrations were determined by a BCA (bicinchoninic acid) Protein Assay Kit (Thermo Fisher Scientific, Rockford, IL, USA), and then the protein extracts were reconstituted in loading buffer containing 62 mM Tris-HCl, 2% SDS (sodium dodecyl sulfate), 10% glycerol, and 5% β-mercaptoethanol (Beyotime, Shanghai, China), and boiled at 100 °C for 3 min. An equal amount of the proteins (40 μg) was separated by 8%–12% sodium dodecyl sulphate-polyacrylamide gel electrophoresis (SDS-PAGE) and were transferred to nitrocellulose membranes (Amersham Biosciences, Little Chalfont, Buckinghamshire, UK). After blocking with 5% non-fat dried milk in TBS containing 1% Tween-20 for 90 min at room temperature, the membranes were incubated overnight with specific primary antibodies (Abcam, London, England) at 4 °C. After three washes in TBST, the membranes were incubated with the appropriate HRP-conjugated (Horseradish Peroxidase-conjugated) secondary antibodies at room temperature for 2 h. The blots were developed with enhanced chemiluminescence (Pierce, Rockford, IL, USA) and detected by an LAS4000 imager (GE Healthcare, Waukesha, WI, USA).
# (§2) Figure 5 Compound 31e inhibits c-Met phosphorylation and downstream signaling in cancer cell lines. Cells treated with compound 31e for 1 h or 2 h were then lysed and subjected to Western blot analysis.
# [2] = test system: Hela (human epithelial cervical cancer cells); experiment: MTT antiproliferative assay, Hela cells; format: cell-based; settings: Hela cells, MTT, 48 h, read-out: IC50 Hela
# From the text: as §3, §4
# c-Met enzyme = biological target: T1, c-Met enzyme (Homo sapiens, UniProt P08581); experiment: Kinase inhibition assay; format: biochemical
# T1 construct: purchased Invitrogen
# T1 sequence (P08581 25-1390): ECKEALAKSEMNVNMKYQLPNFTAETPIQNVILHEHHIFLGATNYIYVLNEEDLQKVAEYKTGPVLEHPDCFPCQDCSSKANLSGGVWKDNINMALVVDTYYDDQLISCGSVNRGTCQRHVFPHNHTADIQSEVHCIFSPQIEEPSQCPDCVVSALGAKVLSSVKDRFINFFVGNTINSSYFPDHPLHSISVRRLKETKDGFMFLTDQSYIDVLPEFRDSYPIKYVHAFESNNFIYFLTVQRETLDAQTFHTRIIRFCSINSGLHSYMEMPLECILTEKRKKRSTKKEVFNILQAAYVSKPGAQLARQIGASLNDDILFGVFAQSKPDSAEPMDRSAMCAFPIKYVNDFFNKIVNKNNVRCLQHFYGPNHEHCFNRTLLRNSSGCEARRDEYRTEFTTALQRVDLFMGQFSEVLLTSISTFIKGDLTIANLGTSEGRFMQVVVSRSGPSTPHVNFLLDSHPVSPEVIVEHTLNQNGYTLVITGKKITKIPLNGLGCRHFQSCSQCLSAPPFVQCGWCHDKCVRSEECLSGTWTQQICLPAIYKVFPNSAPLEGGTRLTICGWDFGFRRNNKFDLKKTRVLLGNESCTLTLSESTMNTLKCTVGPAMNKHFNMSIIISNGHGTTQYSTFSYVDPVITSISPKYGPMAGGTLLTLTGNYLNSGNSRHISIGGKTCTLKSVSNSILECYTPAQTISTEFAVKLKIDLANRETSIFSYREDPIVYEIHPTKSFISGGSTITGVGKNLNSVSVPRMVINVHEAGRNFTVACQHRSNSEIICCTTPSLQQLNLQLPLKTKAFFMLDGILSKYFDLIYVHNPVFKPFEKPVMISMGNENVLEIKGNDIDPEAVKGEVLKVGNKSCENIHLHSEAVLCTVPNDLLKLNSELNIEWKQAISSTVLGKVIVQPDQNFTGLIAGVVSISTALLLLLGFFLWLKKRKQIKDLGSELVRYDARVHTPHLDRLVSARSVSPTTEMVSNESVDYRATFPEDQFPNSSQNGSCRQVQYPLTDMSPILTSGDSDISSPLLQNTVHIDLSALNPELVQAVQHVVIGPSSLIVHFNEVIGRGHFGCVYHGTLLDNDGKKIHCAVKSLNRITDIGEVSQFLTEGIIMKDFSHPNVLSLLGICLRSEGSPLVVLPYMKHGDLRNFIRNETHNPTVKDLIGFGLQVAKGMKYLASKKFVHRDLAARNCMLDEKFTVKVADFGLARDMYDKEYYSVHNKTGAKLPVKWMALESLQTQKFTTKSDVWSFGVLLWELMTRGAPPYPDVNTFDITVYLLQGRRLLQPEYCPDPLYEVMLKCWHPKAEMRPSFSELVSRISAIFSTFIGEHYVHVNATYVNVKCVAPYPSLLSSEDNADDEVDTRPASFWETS
# Method: The c-Met enzymes and the Z’-LYTE Kinase Kit were purchased from Invitrogen. The tested compounds were used in concentrations of 0.001 to 10 mM. Briefly, 1 μL of an inhibitor or 5% DMSO, 2 μL of enzyme, and 2 μL of substrate/ATP mix were added to a 384-well low volume plate L and incubated at room temperature for 60 min. Then, 5 μL of ADP-Glo™ Reagent was added, and the mixture was incubated at room temperature for 40 min. Finally, 10 μL of Kinase Detection Reagent was added, and the mixture was incubated at room temperature for 30 min. The plate was measured on a multifunction microplate reader (Molecular Devices, Flex Station 3), and the luminescence was recorded (integration time 0.5–1 s). Curve fitting and data presentations were performed using Graph Pad Prism version 5.0 (GraphPad Inc., La Jolla, CA, USA). Every experiment was repeated at least three times.
# [3] = test system: hepatic carcinoma 97H cells; experiment: Anti-cell-migration study; format: cell-based, human; settings: 36 h
# Method: 97H cells were plated in a 6-well culture dish at 5 × 10^4 cells/dish and grown for 24 h, and the non-migrated cells were scraped off the upper surface of the membrane with a 10 μL pipette. The medium was then replaced with 10% serum DMEM medium and treated with compound 31e at the indicated concentrations for another 36 h. After washing with phosphate buffer solution (PBS), the cell images were immediately detected by a Zeiss LSM 570 laser scanning confocal microscope (Carl Zeiss, Jena, Germany).
# Figure 4 Effect of 31e on the migration of hepatic carcinoma 97H cells. Hepatic carcinoma 97H cells (50 × 10^4 cells) suspended in free serum Dulbecco’s Modified Eagle Medium (DMEM) containing 31e for 36 h were photographed under a phase contrast microscopy (magnification: 4 × objective). All results were expressed as the mean ± SD of at least three independent experiments.
# [4] = test system: hepatic carcinoma 97H cells; experiment: Cell cycle analysis by flow cytometry (PI staining); format: cell-based, human
# Method: 97H cells were seeded in 6-well plates (3 × 10^5 cells/well) and incubated in the presence or absence of compound 31e at the indicated concentrations for 24 h. Then, cells were harvested by centrifugation and fixed in 70% ice-cold ethanol overnight. The ethanol was removed the next day, and then the cells were resuspended in the ice-cold PBS and treated with RNAse A (Keygen Biotech, Nanjing, China) at 37 °C for 30 min, followed by incubation with the DNA staining solution propidium iodide (PI) (Keygen Biotech, Nanjing, China) at 4 °C for 30 min. About 10,000 events were detected by flow cytometry (Epics XL, Beckman Coulter, Fullerton, CA, USA) at 488 nm. The data regarding the number of cells in different phases of the cell cycle were analyzed by EXPO32 ADC analysis software (Beckman Coulter, Fullerton, CA, USA).
# Figure 3 Effect of 31e on cell cycle progression. (A) 97H cells (3 × 10^5 cells/sample) were treated with increasing concentrations of 31e for 24 h, cells were harvested, fixed with 70% ethanol, and stained with propidium iodide (PI). The cellular DNA content was then determined by flow cytometry analysis. (B) Quantitative analysis of the percentage of cells in each cell cycle phase was analyzed by EXPO32 ADC analysis software.
# Akt phosphorylation = experiment: Western blot, phosphorylation of Akt in 97H cells; format: cell-based, human
# Method: as §1, §2
# [5] = test system: HLF (human embryonic lung fibroblast cells); experiment: MTT assay, HLF normal cells; format: cell-based; settings: HLF normal cells, MTT, 48 h, read-out: IC50 HLF
# From the text: as §3, §4
# [6] = test system: SJSA1 (human osteosarcoma cells); experiment: MTT antiproliferative assay, SJSA1 cells; format: cell-based; settings: SJSA-1, SJSA1 cells, MTT, 48 h, read-out: IC50 SJSA1
# From the text: as §3, §4
# [7] = test system: LO2 (human normal liver cells); experiment: MTT assay, LO2 normal cells; format: cell-based; settings: LO2 normal cells, MTT, 48 h, read-out: IC50 LO2
# From the text: as §3, §4
# [8] = test system: Pc9 (human non-small cell lung cancer cells); experiment: MTT antiproliferative assay, Pc9 cells; format: cell-based; settings: PC-9, Pc9 cells, MTT, 48 h, read-out: IC50 Pc9
# From the text: as §3, §4
# [9] = same concentration, 2 h versus 1 h
smiles,measurement,setting,value
"CC(c1cccc(-c2ncc(OCC3CCN(C)CC3)cn2)c1)n1cc(-c2cccc(C#N)c2)cnc1=O (stereo not drawn) [Compound 31e, 5-(3-cyanophenyl)-1-(1-(3-(5-((1-methylpiperidin-4-yl)methoxy)pyrimidin-2-yl)phenyl)ethyl)pyrimidin-2(1H)-one]",IC50,[1]; read-out: IC50 of Against 97H cells,0.026 µM
same,IC50,"[1]; read-out: IC50 value, 97H cells",0.026 µM
same,phosphorylation of c-Met,"c-Met phosphorylation; 100 nM, 1 h",completely inhibited
same,phosphorylation level of c-Met,"c-Met phosphorylation; 10 or 50 nM, 1 h",suppressed in a dose-dependent manner
same,inhibition of c-Met phosphorylation,c-Met phosphorylation; [9],more obvious
same,IC50,[2],> 50 µM
same,IC50,c-Met enzyme,0.032 ± 0.06 µM
same,inhibition of migration,[3]; 10 nM,moderate inhibition of migration
same,inhibition of migration,[3]; 50 nM,significantly suppressed
same,inhibition of migration,[3]; 100 nM,completely suppressed
same,population of cells in the G1 phase,"[4]; 10 nM, 24 h (vehicle DMSO 70.42%)",83.84%
same,population of cells in the G1 phase,"[4]; 100 nM, 24 h",90.88%
same,population of cells in the G2/M phase,"[4]; 100 nM, 24 h",5.78%
same,phosphorylation of Akt,"Akt phosphorylation; 100 nM, 1 h",completely inhibited
same,phosphorylation level of Akt,"Akt phosphorylation; 10 or 50 nM, 1 h",suppressed in a dose-dependent manner
same,inhibition of Akt phosphorylation,Akt phosphorylation; [9],more obvious
same,IC50,[5],> 50 µM
same,IC50,[6],> 50 µM
same,IC50,[7],> 50 µM
same,melting point,,98.2 to 99.9 °C
same,IC50,[8],42.9 ± 0.13 µM
